According to patent US20230085307A1, “PYRIDAZINONE COMPOUND AND HERBICIDE” (NISSAN CHEMICAL CORPORATION, priority 2019, published 2023):

Columns and labels:
[1] = tested on: blackgrass; assay: Test Example 5: herbicidal effect by foliage application, plastic box (Table 20, symbol J); format: in vivo, blackgrass (Alopecurus myosuroides); conditions: foliage application, 320 g/ha; for J: blackgrass, herbicidal effect grade: three weeks after application
How it was run: (§1)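 Plants sown in sterilized diluvial soil and grown 14 days in a greenhouse at 25° C to 30° C, then sprayed on the foliage with the compound's emulsion diluted in water to a predetermined herbicide amount. Injury to weeds and crops scored three weeks after application on a visual rating scale.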

[2] = tested on: persian speedwell; assay: Test Example 4: herbicidal effect by soil treatment (Table 19, symbol R); format: in vivo, Persian speedwell (Veronica persica); conditions: amount of applied herbicide 320 g/ha
How it was run: (§2)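 Three weeks of greenhouse growth at 25° C. to 30° C. followed a uniform surface spray of water-diluted emulsion at a predetermined herbicide amount. Seeds had been sown beforehand under about 1.5 cm of sterilized diluvial soil. Grading followed criteria set out in an earlier test.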

[3] = tested on: late watergrass; assay: Test Example 1: herbicidal activity, application before weed generation under submerged conditions (Table 16, symbol A); format: in vivo, late watergrass (Echinochloa oryzicola); conditions: amount of applied herbicide 320 g/ha
How it was run: (§3)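 Alluvial soil was flooded to 4 cm depth, weed seeds were sown mixed and 2.5-leaf rice seedlings were transplanted. On sowing day, the compound's emulsion, diluted in water to a set dose, was applied to the water surface. Plants grew at 25–30 °C and were scored 0–5 after three weeks.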

[4] = tested on: wild oat; assay: Test Example 4: herbicidal effect by soil treatment (Table 19, symbol I); format: in vivo, wild oat (Avena fatua); conditions: amount of applied herbicide 320 g/ha
How it was run: as §2

[5] = tested on: redroot pigweed; assay: Test Example 4: herbicidal effect by soil treatment (Table 19, symbol N); format: in vivo, redroot pigweed (Amaranthus retroflexus); conditions: amount of applied herbicide 320 g/ha
How it was run: as §2

[6] = tested on: blackgrass; assay: Test Example 4: herbicidal effect by soil treatment (Table 19, symbol J); format: in vivo, blackgrass (Alopecurus myosuroides); conditions: amount of applied herbicide 320 g/ha
How it was run: as §2

[7] = tested on: green foxtail; assay: Test Example 4: herbicidal effect by soil treatment (Table 19, symbol G); format: in vivo, green foxtail (Setaria viridis); conditions: amount of applied herbicide 320 g/ha
How it was run: as §2

[8] = tested on: oval-leafed pondweed; assay: Test Example 2: herbicidal activity, application during weed generation under submerged conditions (Table 17, symbol C); format: in vivo, oval-leafed pondweed (Monochoria vaginalis); conditions: for herbicidal effect rating, C: oval-leafed pondweed: AAH 320 g/ha, application during weed generation, submerged conditions
How it was run: (§4)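 Herbicide emulsion, diluted with water to the chosen amount, is applied onto 4 cm floodwater over alluvial soil where the weeds were co-sown and raised at 25–30° C. Application timing: 1–2 leaves. Assessment: three weeks afterwards.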

[9] = tested on: Italian ryegrass; assay: Test Example 5: herbicidal effect by foliage application, plastic box (Table 20, symbol K); format: in vivo, Italian ryegrass (Lolium multiflorum); conditions: foliage application, 320 g/ha; for K: Italian ryegrass, herbicidal effect grade: three weeks after application
How it was run: as §1

[10] = tested on: Japanese bulrush; assay: Test Example 1: herbicidal activity, application before weed generation under submerged conditions (Table 16, symbol B); format: in vivo, Japanese bulrush (Schoenoplectus juncoides); conditions: amount of applied herbicide 320 g/ha
How it was run: as §3

[11] = tested on: velvetleaf; assay: Test Example 4: herbicidal effect by soil treatment (Table 19, symbol M); format: in vivo, velvetleaf (Abutilon theophrasti); conditions: amount of applied herbicide 320 g/ha
How it was run: as §2

[12] = tested on: velvetleaf; assay: Test Example 5: herbicidal effect by foliage application, plastic box (Table 20, symbol M); format: in vivo, velvetleaf (Abutilon theophrasti); conditions: foliage application, 320 g/ha; for M: velvetleaf, herbicidal effect grade: three weeks after application
How it was run: as §1

[13] = tested on: green foxtail; assay: Test Example 5: herbicidal effect by foliage application, plastic box (Table 20, symbol G); format: in vivo, green foxtail (Setaria viridis); conditions: foliage application, 320 g/ha; for G: green foxtail, herbicidal effect grade: three weeks after application
How it was run: as §1

[14] = tested on: wild oat; assay: Test Example 5: herbicidal effect by foliage application, plastic box (Table 20, symbol I); format: in vivo, wild oat (Avena fatua); conditions: foliage application, 320 g/ha; for I: wild oat, herbicidal effect grade: three weeks after application
How it was run: as §1

[15] = tested on: chickweed; assay: Test Example 5: herbicidal effect by foliage application, plastic box (Table 20, symbol P); format: in vivo, common chickweed (Stellaria media); conditions: foliage application, 320 g/ha; for P: chickweed, herbicidal effect grade: three weeks after application
How it was run: as §1

[16] = tested on: lambsquarters; assay: Test Example 4: herbicidal effect by soil treatment (Table 19, symbol O); format: in vivo, lambsquarters (Chenopodium album); conditions: amount of applied herbicide 320 g/ha
How it was run: as §2

[17] = tested on: Japanese bulrush; assay: Test Example 2: herbicidal activity, application during weed generation under submerged conditions (Table 17, symbol B); format: in vivo, Japanese bulrush (Schoenoplectus juncoides); conditions: for herbicidal effect rating, B: Japanese bulrush: AAH 320 g/ha, application during weed generation, submerged conditions
How it was run: as §4

[18] = tested on: southern crabgrass; assay: Test Example 5: herbicidal effect by foliage application, plastic box (Table 20, symbol F); format: in vivo, southern crabgrass (Digitaria ciliaris); conditions: foliage application, 320 g/ha; for F: southern crabgrass, herbicidal effect grade: three weeks after application
How it was run: as §1

[19] = tested on: Italian ryegrass; assay: Test Example 4: herbicidal effect by soil treatment (Table 19, symbol K); format: in vivo, Italian ryegrass (Lolium multiflorum); conditions: amount of applied herbicide 320 g/ha
How it was run: as §2

[20] = tested on: barnyard grass; assay: Test Example 5: herbicidal effect by foliage application, plastic box (Table 20, symbol H); format: in vivo, barnyard grass (Echinochloa crus-galli); conditions: foliage application, 320 g/ha; for H: barnyard grass, herbicidal effect grade: three weeks after application
How it was run: as §1

[21] = tested on: windgrass; assay: Test Example 5: herbicidal effect by foliage application, plastic box (Table 20, symbol L); format: in vivo, windgrass (Apera spica-venti); conditions: foliage application, 320 g/ha; for L: windgrass, herbicidal effect grade: three weeks after application
How it was run: as §1

[22] = evaluated 3 weeks after application
[23] = application during weed generation under submerged conditions, amount of applied herbicide 320 g/ha

Row | Compound | J: blackgrass, herbicidal effect grade [1] | R: persian speedwell, herbicidal effect grade [2] | Herbicidal effect, A: late watergrass [3] | I: wild oat, herbicidal effect grade [4] | N: redroot pigweed, herbicidal effect grade [5] | J: blackgrass, herbicidal effect grade [6] | G: green foxtail, herbicidal effect grade [7] | herbicidal effect rating, C: oval-leafed pondweed [8] | K: Italian ryegrass, herbicidal effect grade [9] | Herbicidal effect, B: Japanese bulrush [10] | M: velvetleaf, herbicidal effect grade [11] | M: velvetleaf, herbicidal effect grade [12] | G: green foxtail, herbicidal effect grade [13] | I: wild oat, herbicidal effect grade [14] | P: chickweed, herbicidal effect grade [15] | O: lambsquarters, herbicidal effect grade [16] | herbicidal effect rating, B: Japanese bulrush [17] | F: southern crabgrass, herbicidal effect grade [18] | K: Italian ryegrass, herbicidal effect grade [19] | H: barnyard grass, herbicidal effect grade [20] | also measured
1 | CCCC(=O)Oc1c(C)nn(C)c(=O)c1-c1c(-c2ccc(OC)cc2)sc2cc(OCC)ccc12 [3-092] | 0 (Herbicidal rate of 5% or less (almost no effect)) | 5 (Herbicidal rate of 90% or more (almost completely withered)) | 0 (Herbicidal rate of 5% or less (almost no effect)) | 0 (Herbicidal rate of 5% or less (almost no effect)) | 3 (Herbicidal rate of 40% or more and less than 70%) | 0 (Herbicidal rate of 5% or less (almost no effect)) | 0 (Herbicidal rate of 5% or less (almost no effect)) | 3 (Herbicidal rate of 40% or more and less than 70%) | 0 (Herbicidal rate of 5% or less (almost no effect)) | 3 (Herbicidal rate of 40% or more and less than 70%) | 0 (Herbicidal rate of 5% or less (almost no effect)) | 5 (Herbicidal rate of 90% or more (almost completely withered)) | 0 (Herbicidal rate of 5% or less (almost no effect)) | 0 (Herbicidal rate of 5% or less (almost no effect)) | 5 (Herbicidal rate of 90% or more (almost completely withered)) | 4 (Herbicidal rate of 70% or more and less than 90%) | 1 (Herbicidal rate of 5% or more and less than 20%) | 0 (Herbicidal rate of 5% or less (almost no effect)) | 0 (Herbicidal rate of 5% or less (almost no effect)) | 0 (Herbicidal rate of 5% or less (almost no effect)) | L: windgrass, herbicidal effect grade [21]: 0 (Herbicidal rate of 5% or less (almost no effect))
2 | CCCC(=O)Oc1c(C)nn(C)c(=O)c1-c1c(-c2ccc(F)cc2)sc2cc(F)ccc12 [3-002] | 4 (Herbicidal rate of 70% or more and less than 90%) | – | 5 (Herbicidal rate of 90% or more (almost completely withered)) | – | – | – | – | 4 (Herbicidal rate of 70% or more and less than 90%) | 4 (Herbicidal rate of 70% or more and less than 90%) | 3 (Herbicidal rate of 40% or more and less than 70%) | – | 5 (Herbicidal rate of 90% or more (almost completely withered)) | 4 (Herbicidal rate of 70% or more and less than 90%) | 4 (Herbicidal rate of 70% or more and less than 90%) | 5 (Herbicidal rate of 90% or more (almost completely withered)) | – | 3 (Herbicidal rate of 40% or more and less than 70%) | 4 (Herbicidal rate of 70% or more and less than 90%) | – | 3 (Herbicidal rate of 40% or more and less than 70%) | herbicidal effect, R: persian speedwell [2]: 5 (Herbicidal rate of 90% or more (almost completely withered)); herbicidal effect, I: wild oat [4]: 3 (Herbicidal rate of 40% or more and less than 70%); herbicidal effect, N: redroot pigweed [5]: 5 (Herbicidal rate of 90% or more (almost completely withered)); herbicidal effect, J: blackgrass [6]: 0 (Herbicidal rate of 5% or less (almost no effect)); herbicidal effect, G: green foxtail [7]: 0 (Herbicidal rate of 5% or less (almost no effect)); herbicidal effect, M: velvetleaf [11]: 0 (Herbicidal rate of 5% or less (almost no effect)); herbicidal effect, O: lambsquarters [16]: 4 (Herbicidal rate of 70% or more and less than 90%); herbicidal effect, K: Italian ryegrass [19]: 4 (Herbicidal rate of 70% or more and less than 90%); L: windgrass, herbicidal effect grade [21]: 1 (Herbicidal rate of 5% or more and less than 20%)
3 | CCSc1ccc(-c2oc3ccc(C)cc3c2-c2c(O)c(C)nn(C)c2=O)cc1 [9-057] | – | 5 (Herbicidal rate of 90% or more (almost completely withered)) | 5 (Herbicidal rate of 90% or more (almost completely withered)) | 0 (Herbicidal rate of 5% or less (almost no effect)) | 5 (Herbicidal rate of 90% or more (almost completely withered)) | 0 (Herbicidal rate of 5% or less (almost no effect)) | 5 (Herbicidal rate of 90% or more (almost completely withered)) | – | – | 4 (Herbicidal rate of 70% or more and less than 90%) | 4 (Herbicidal rate of 70% or more and less than 90%) | – | – | – | – | 5 (Herbicidal rate of 90% or more (almost completely withered)) | – | – | 5 (Herbicidal rate of 90% or more (almost completely withered)) | – | J (blackgrass) herbicidal effect grade [1, 22]: 5 (Herbicidal rate of 90% or more (almost completely withered)); herbicidal effect grade, C: oval-leafed pondweed [8, 23]: 4 (Herbicidal rate of 70% or more and less than 90%); K (Italian ryegrass) herbicidal effect grade [9, 22]: 5 (Herbicidal rate of 90% or more (almost completely withered)); M (velvetleaf) herbicidal effect grade [12, 22]: 5 (Herbicidal rate of 90% or more (almost completely withered)); G (green foxtail) herbicidal effect grade [13, 22]: 5 (Herbicidal rate of 90% or more (almost completely withered)); I (wild oat) herbicidal effect grade [14, 22]: 3 (Herbicidal rate of 40% or more and less than 70%); P (chickweed) herbicidal effect grade [15, 22]: 5 (Herbicidal rate of 90% or more (almost completely withered)); herbicidal effect grade, B: Japanese bulrush [17, 23]: 3 (Herbicidal rate of 40% or more and less than 70%); F (southern crabgrass) herbicidal effect grade [18, 22]: 5 (Herbicidal rate of 90% or more (almost completely withered)); H (barnyard grass) herbicidal effect grade [20, 22]: 3 (Herbicidal rate of 40% or more and less than 70%); L (windgrass) herbicidal effect grade [21, 22]: 3 (Herbicidal rate of 40% or more and less than 70%)
